Measured values as given in US20220193241A1, “AGENT TARGETING DOUBLE-MEMBRANE ORGANELLE DNA” (CHIBA-PREFECTURE, priority 2019, published 2022).

How the values were obtained:
HeEB1 cells = assay: mRNA expression of cell cycle arrest- and apoptosis-related genes by real-time PCR; type: cell-based, human; details: 25 μM, 3 days
Protocol: (§1) In order to elucidate the mechanism of the cell proliferation suppressive effect by CCC020-TPP administration, expression analysis at the mRNA level was conducted by real-time PCR. The mtDNA mutation cell line (3243G High) and the normal cell line (HeEB1) were inoculated at 5×10^5 cells/dish and 1×10^5 cells/dish, respectively, to 6 cm dishes (Falcon), cultured for 24 hours, and then treated with CCC020-TPP (final concentration: 25 μM). After further culture for 3 days, RNA was extracted using RNeasy Plus Mini Kit (QIAGEN) according to the instruction manual. The yield of the RNA thus extracted was measured using NANO DROP 2000™ (Thermo Fisher Scientific). The reverse-transcription reaction of RNA was performed with 500 ng of RNA per sample using SuperScript VILO Master Mix (Invitrogen) to synthesize cDNA. The synthesized cDNA was diluted 5-fold with ultrapure water.
(§2) Real-time PCR employed Power SYBR Green Master Mix (Applied Biosystems), and cDNA sample preparation, PCR reaction and analysis were conducted. The primers and reaction conditions used are shown below.
(§3) The PCR reaction conditions were as follows.

3243G High cells [1] = assay: as above; type: cell-based, human; details: 25 μM, 3 days
Protocol: as §1, §2, §3

3243G High cells [2] = assay: Cell death induction: DAPI nuclear staining and cleaved caspase-3 immunostaining; type: cell-based, human; details: 25 μM, 5 days
Protocol: In order to confirm that the suppression of cell proliferation by CCC020-TPP was the induction of cell death, the 3243G High cells were inoculated at 5×10^4 cells/dish to a 35 mm glass base dish (IWAKI), cultured for 24 hours, and then treated with CCC020-TPP (final concentration: 25 μM). The cells thus supplemented with CCC020-TPP were further cultured for 5 days and fixed with 4% PFA/PBS at room temperature for 30 minutes. The cells thus fixed were washed with PBS and blocked with TBST containing 5% normal goat serum for 1 hour. After the completion of blocking, the cells were reacted for 1 hour with a primary antibody diluted with TBST, i.e., a rabbit anti-cleaved caspase-3 antibody (for the cells treated for 5 days: Cell Signaling Technology, Inc.) diluted at 1:200.

3243G High cells [3] = assay: WST assay of cell proliferation with morphological observation; type: cell-based, human; details: 5 days
Protocol: (§4) The proliferation suppressive effect of CCC020-TPP on cells having the mitochondrial A3243G mutation was evaluated by WST assay. Both a mitochondrial DNA mutated cell line and a normal cell line were inoculated at 1×10^3 cells/well to 96-well plates (Thermo Fisher Scientific), cultured for 24 hours, and then treated with CCC020-TPP (final concentration: 0, 0.1, 1, 10, 20, and 50 μM). The cells were further cultured for 5 days and then morphologically observed under optical microscope IX71 (OLYMPUS, Tokyo, Japan). Then, cell survival rates were calculated using Cell counting kit-8 (DOJINDO, Kumamoto, Japan) according to the instruction manual. DMSO (FUJIFILM Wako Pure Chemical Corp.) (final concentration: 1%) was added as a control to cells.
(§5) IC50 was calculated according to the following expression:
(§6) IC50=10(LOG(A/B)×(50−C)/(D−C)+LOG(B)) • A: higher concentration across the concentration at the cell survival rate of 50% • B: lower concentration across the concentration at the cell survival rate of 50% • C: inhibition rate at the lower concentration across the concentration at the cell survival rate of 50% • D: inhibition rate at the higher concentration across the concentration at the cell survival rate of 50%

3243G Low cells = assay: as above; type: cell-based, human; details: 5 days
Protocol: as §4, §5, §6

HeEB1 (HeLamtHeLa) cells = assay: as above; type: cell-based, human; details: 5 days
Protocol: as §4, §5, §6

C33A = assay: WST cell proliferation assay of library compounds; type: cell-based; details: Homo sapiens, C-33-A, 120 h, 5 days
Protocol: (§7) This compound can recognize the T4216C mutation of mitochondrial ND1 gene, and a uterine cervical cancer cell line C33A has this mutation. Cell proliferation assay with wild-type HeLa cells, which is also a uterine cervical cancer cell line, was conducted in the same manner as in Example 1. 1000 cells were inoculated to a 96-well plate, and CCC1283-TPP was administered at 0.5, 1, 5, 10, and 20 μM. 5 days later, WST assay was conducted.
as §7, with “CCCh531-TPP” for “CCC1283-TPP”
(§8) Compound CCCh560-TPP with a decacyclic structure targeting the A8860G polymorphism of mitochondrial gene ATP6 found in human populations, not acquired mitochondrial mutations in somatic cells, was studied for whether the suppression of cell proliferation was also found by 5-day treatment with the compound for the mitochondrial DNA polymorphism in cancer cell lines C33A, HeLa, Siha, Caski, and ME180 having this polymorphism in homoplasmy and human nontumor skin-derived fibroblast HDF cells. For this purpose, cell proliferation assay was conducted in the same manner as in Example 1. 1000 cells were inoculated to a 96-well plate, and CCCh560-TPP was administered at 0.5, 1, 5, 10, and 20 μM. 5 days later, WST assay was conducted.

HeLa cells = assay: WST cell proliferation assay of library compounds; type: cell-based; details: Homo sapiens, 120 h, 5 days
Protocol: as §7
as §7, with “CCCh531-TPP” for “CCC1283-TPP”
as §8

Siha = assay: WST cell proliferation assay of library compounds; type: cell-based; details: Homo sapiens, 120 h, 5 days
Source text: as §8

ME180 = assay: WST cell proliferation assay of library compounds; type: cell-based; details: Homo sapiens, ME-180, 120 h; ME180, 5 days
Source text: as §8

Caski = assay: WST cell proliferation assay of library compounds; type: cell-based; details: Homo sapiens, Ca-Ski, 120 h, 5 days
Source text: as §8

[4] = test system: HDF (human skin fibroblasts); assay: WST cell proliferation assay of library compounds; type: cell-based; details: 5 days
Source text: as §8

IC50 (HeLa cells)	Structure (SMILES)	expression of P21, BAX and MCL1 (HeEB1 cells)	expression of antiapoptosis-related gene MCL1 (3243G High cells [1])	expression of cell cycle arrest-related gene P21 (3243G High cells [1])	expression of proapoptosis-related gene BAX (3243G High cells [1])	cleaved caspase-3-positive cells (apoptosis) (3243G High cells [2])	cells with fragmentation of the nucleus (3243G High cells [2]; DAPI)	suppression of cell proliferation (WST) (3243G High cells [3]; 0.1-50 μM)	cell morphology under optical microscope (3243G High cells [3])	suppression of cell proliferation (WST) (3243G Low cells; 0.1-50 μM)	cell morphology under optical microscope (3243G Low cells)	suppression of cell proliferation (WST) (HeEB1 (HeLamtHeLa) cells; 0.1-50 μM)	cell morphology under optical microscope (HeEB1 (HeLamtHeLa) cells)	IC50 (C33A)	IC50 (Siha)	IC50 (ME180)	IC50 (Caski)	suppression of proliferation (WST) ([4]; 0.5-20 μM)	IC50 (WST) [4]
–	CN(C)CCCNC(=O)CCNC(=O)c1cc(NC(=O)c2cc(NC(=O)CCNC(=O)c3nc(NC(=O)c4nc(NC(=O)c5nc(NC(=O)CCNC(=O)CCCC[P+](c6ccccc6)(c6ccccc6)c6ccccc6)cn5C)cn4C)cn3C)cn2C)cn1C [CCC020-TPP]	no change in expression was found	significantly decreased	significantly increased	significantly increased	approximately half	approximately 60%	cell proliferation suppressive effect was markedly found	cells that seemed to undergo apoptosis were markedly observed	cell proliferation suppressive effect was markedly found	no morphological change in cells was found	cell proliferation was not suppressed	no morphological change in cells was found	–	–	–	–	–	–
7.75 µM	CN(C)CCCNC(=O)CCNC(=O)c1cc(NC(=O)c2cc(NC(=O)CCNC(=O)c3nc(NC(=O)c4cc(NC(=O)c5nc(NC(=O)CCCNC(=O)c6cc(NC(=O)c7nc(NC(=O)CCNC(=O)c8nc(NC(=O)c9nc(NC(=O)c%10nc(NC(=O)CCNC(=O)CCCC[P+](c%11ccccc%11)(c%11ccccc%11)c%11ccccc%11)cn%10C)cn9C)cn8C)cn7C)cn6C)cn5C)cn4C)cn3C)cn2C)cn1C [CCCh560-TPP]	–	–	–	–	–	–	–	–	–	–	–	–	1.65 µM	12.6 µM	3.24 µM	5.5 µM	tendency to suppress the proliferation	incalculable
